Consider 13 molecules from patent publication US20250051367A1, “HETEROCYCLE-CONTAINING LONP1 INHIBITOR COMPOUNDS, USES AND METHODS” (Pretzel Therapeutics, Inc., priority 2021, published 2025).

LONP1 (NM_004793.4), sequence (P36776 68-959): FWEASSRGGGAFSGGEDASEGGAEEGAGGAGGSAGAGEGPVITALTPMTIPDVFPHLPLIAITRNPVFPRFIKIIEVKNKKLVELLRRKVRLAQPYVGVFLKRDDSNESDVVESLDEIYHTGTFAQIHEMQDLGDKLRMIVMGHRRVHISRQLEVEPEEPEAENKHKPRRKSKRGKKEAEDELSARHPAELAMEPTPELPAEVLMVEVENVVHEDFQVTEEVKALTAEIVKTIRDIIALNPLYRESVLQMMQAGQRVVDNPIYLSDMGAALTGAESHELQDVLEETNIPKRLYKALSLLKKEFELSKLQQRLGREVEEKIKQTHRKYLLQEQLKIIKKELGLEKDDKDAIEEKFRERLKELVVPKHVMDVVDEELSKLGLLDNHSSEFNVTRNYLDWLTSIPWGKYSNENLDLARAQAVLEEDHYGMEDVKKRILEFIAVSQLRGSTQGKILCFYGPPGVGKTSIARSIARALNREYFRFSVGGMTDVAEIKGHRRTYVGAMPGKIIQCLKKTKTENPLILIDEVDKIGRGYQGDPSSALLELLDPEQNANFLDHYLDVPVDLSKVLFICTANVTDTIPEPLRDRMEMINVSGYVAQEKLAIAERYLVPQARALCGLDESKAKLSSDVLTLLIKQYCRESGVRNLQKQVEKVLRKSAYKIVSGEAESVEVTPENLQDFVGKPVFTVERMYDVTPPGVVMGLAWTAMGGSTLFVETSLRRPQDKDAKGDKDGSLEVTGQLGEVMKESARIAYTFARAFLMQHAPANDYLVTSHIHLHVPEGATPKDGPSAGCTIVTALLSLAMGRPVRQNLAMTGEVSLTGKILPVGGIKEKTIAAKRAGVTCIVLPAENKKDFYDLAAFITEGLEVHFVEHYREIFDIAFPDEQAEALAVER

This test addresses LONP1 (NM_004793.4) (Homo sapiens (Human), UniProt P36776). Kind of test: LONP1 FRET-based protease activity assay (fluorogenic peptide substrate). It counts as biochemical. To be noted: substrate 3 μM, LONP1 15 nM, 1 hour at 37° C.; average of a minimum of two repeats. The protocol: The inhibitory activity of the compounds of the present invention against LONP1, 20S proteasome and other proteases are determined by assays known to persons of ordinary skill in the art (see, e.g., Fishovitz, J. et al. “Active-Site-Directed Chemical Tools for Profiling Mitochondrial Lon Protease” ACS Chem. Biol. 6, 781-788 (2011)).
In this Example, LONP1 (NM_004793.4) activity was measured by a FRET-based assay for protease activity using a fluorogenic peptide DabcylYRGIT(2Abu)SGRQK(5-FAM) (Cambridge Research Biochemicals) as substrate. LONP1 activity is followed by an increase in fluorescence signal due to the degradation of the peptide. Inhibition of LONP1 protease activity by an inhibitor compound of the disclosure elicits a decrease in the fluorescent signal.
The assay is performed in a 384-well plate (Greiner, cat. #781076) using the following reagents and conditions: substrate (3 μM) was incubated for 1 hour at 37° C. in the presence of LONP1 (15 nM as monomer), 25 mM Tris pH 8.0, 10 mM MgCl2, 0.03 mg/mL BSA, 0.5 mM DTT, 0.0003% Tween-20, 10 mM NaCl, 0.06 mM ATP and 0.5 mM EGTA in a 15 μL final volume. The LONP1-containing mix (10 μL) was incubated with the test compound for 15 min at 37° C. before adding the peptide-containing mix (5 μL). Solutions were dispensed using a small cassette-Multidrop Combi (Thermo Scientific). Fluorescence was measured using a PheraStar plate reader (BMG Labtech) FI-FRET EX 485 nm Em 520 nm.
Each value is based on an average of a minimum of two repeats.
In general, IC50 refers to the concentration that inhibits the measured activity by half. The molecule `Cn1ccc(C[C@@H](NC(=O)c2cnccn2)C(=O)N[C@H](CCCc2ccccc2)B(O)O)n1` (stereo in doubt) [Compound 4, ((S)-1-((R)-3-(1-methyl-1H-pyrazol-3-yl)-2-(pyrazine-2-carboxamido)propanamido)-4-phenylbutyl)boronic acid] came in with an IC50 of under 50 nM.
Molecule `O=C(N[C@H](Cc1nccs1)C(=O)N[C@@H](CCCc1ccccc1)B(O)O)c1cnccn1` [Compound 1, ((R)-4-phenyl-1-((R)-2-(pyrazine-2-carboxamido)-3-(thiazol-2-yl)propanamido)butyl)boronic acid] returned an IC50 of under 50 nM.
Turning to `O=C(N[C@@H](Cc1nccs1)C(=O)N[C@@H](CCCc1ccccc1)B(O)O)c1cnccn1` [Compound 2, ((R)-4-phenyl-1-((S)-2-(pyrazine-2-carboxamido)-3-(thiazol-2-yl)propanamido)butyl)boronic acid], the IC50 is under 50 nM.
As for `Cn1ccc(C[C@@H](NC(=O)c2cnccn2)C(=O)N[C@@H](CCCc2ccccc2)B(O)O)n1` [Compound 3, ((R)-1-((R)-3-(1-methyl-1H-pyrazol-3-yl)-2-(pyrazine-2-carboxamido)propanamido)-4-phenylbutyl)boronic acid], the figure is under 50 nM; as for `O=C(N[C@H](Cc1cnco1)C(=O)N[C@@H](CCCc1ccccc1)B(O)O)c1cnccn1` [Compound 5, ((R)-1-((R)-3-(oxazol-5-yl)-2-(pyrazine-2-carboxamido)propanamido)-4-phenylbutyl)boronic acid], under 50 nM.
As for `O=C(N[C@@H](Cc1cnco1)C(=O)N[C@@H](CCCc1ccccc1)B(O)O)c1cnccn1` [Compound 6], the figure is under 50 nM.
Regarding `O=C(N[C@H](Cc1c[nH]c2ccccc12)C(=O)N[C@@H](CCCc1ccccc1)B(O)O)c1cnccn1` [Compound 7, ((R)-1-((R)-3-(1H-indol-3-yl)-2-(pyrazine-2-carboxamido)propanamido)-4-phenylbutyl)boronic acid], the half-inhibitory concentration (IC50) fell in the range of 50 to 500 nM.
`CC(C)C[C@H](NC(=O)[C@@H](Cc1nccn1C)NC(=O)c1cnccn1)B(O)O` [Compound 8, ((R)-3-methyl-1-((R)-3-(1-methyl-1H-imidazol-2-yl)-2-(pyrazine-2-carboxamido)propanamido)butyl)boronic acid] came in with an IC50 of 50 to 500 nM.
`CC(C)C[C@H](NC(=O)[C@H](Cc1nccn1C)NC(=O)c1cnccn1)B(O)O` [Compound 9, ((R)-3-methyl-1-((S)-3-(1-methyl-1H-imidazol-2-yl)-2-(pyrazine-2-carboxamido)propanamido)butyl)boronic acid] registered a concentration for half-maximal inhibition (IC50) of 50 to 500 nM.
As for `O=C(N[C@H](Cc1ncco1)C(=O)N[C@@H](CCCc1ccccc1)B(O)O)c1cnccn1` [Compound 10, ((R)-1-((R)-3-(oxazol-2-yl)-2-(pyrazine-2-carboxamido)propanamido)-4-phenylbutyl)boronic acid], the figure is under 50 nM; as for `O=C(N[C@@H](Cc1ncco1)C(=O)N[C@@H](CCCc1ccccc1)B(O)O)c1cnccn1` [Compound 11, ((R)-1-((S)-3-(oxazol-2-yl)-2-(pyrazine-2-carboxamido)propanamido)-4-phenylbutyl)boronic acid], under 50 nM; as for `Cn1ccnc1C[C@@H](NC(=O)c1cnccn1)C(=O)N[C@@H](CCCc1ccccc1)B(O)O` [Compound 12, ((R)-1-((R)-3-(1-methyl-1H-Imidazol-2-yl)-2-(pyrazine-2-carboxamido)propanamido)-4-phenylbutyl)boronic acid], under 50 nM.
As for `Cn1ccnc1C[C@H](NC(=O)c1cnccn1)C(=O)N[C@@H](CCCc1ccccc1)B(O)O` [Compound 13, ((R)-1-((S)-3-(1-methyl-1H-imidazol-2-yl)-2-(pyrazine-2-carboxamido)propanamido)-4-phenylbutyl)boronic acid], the figure is 50 to 500 nM.
